From patent publication US11180505B2, “Crystal form of PARP-1 inhibitor and preparation method therefor” (Jiangsu Hengrui Medicine Co., Ltd., priority 2017, dated 2021)
Where two headings read alike, the source gives them in different places.

Tests used:
PARP enzyme = PARP enzyme (Homo sapiens, UniProt P09874); conditions: in vitro; cited from earlier work
transplanted tumor = conditions: nude-mouse transplanted tumor model; cited from earlier work
[1] = rat, in vivo; cited from earlier work
[2] = dog, in vivo; cited from earlier work
[3] = accelerated stability test of the crystal form (XRD comparison); type: physicochemical; conditions: 40° C., relative humidity of 75%, 6 months, XRD compared with 0 month
Experimental: The sample of Example 1 was subjected to an accelerated stability test (40° C., relative humidity of 75%) for 6 months and then sent to XRD for testing, and compared with the original data to confirm whether the crystal form changed.
Among them, the XRPD pattern of crystal form A of the compound of formula I after 6 months of the accelerated stability test (40° C., relative humidity of 75%) is shown in FIG. 3. The comparative XRPD pattern of crystal form A of the compound of formula I after accelerated stability test is shown in FIG. 4.

Chain of PARP enzyme (P09874 whole entry): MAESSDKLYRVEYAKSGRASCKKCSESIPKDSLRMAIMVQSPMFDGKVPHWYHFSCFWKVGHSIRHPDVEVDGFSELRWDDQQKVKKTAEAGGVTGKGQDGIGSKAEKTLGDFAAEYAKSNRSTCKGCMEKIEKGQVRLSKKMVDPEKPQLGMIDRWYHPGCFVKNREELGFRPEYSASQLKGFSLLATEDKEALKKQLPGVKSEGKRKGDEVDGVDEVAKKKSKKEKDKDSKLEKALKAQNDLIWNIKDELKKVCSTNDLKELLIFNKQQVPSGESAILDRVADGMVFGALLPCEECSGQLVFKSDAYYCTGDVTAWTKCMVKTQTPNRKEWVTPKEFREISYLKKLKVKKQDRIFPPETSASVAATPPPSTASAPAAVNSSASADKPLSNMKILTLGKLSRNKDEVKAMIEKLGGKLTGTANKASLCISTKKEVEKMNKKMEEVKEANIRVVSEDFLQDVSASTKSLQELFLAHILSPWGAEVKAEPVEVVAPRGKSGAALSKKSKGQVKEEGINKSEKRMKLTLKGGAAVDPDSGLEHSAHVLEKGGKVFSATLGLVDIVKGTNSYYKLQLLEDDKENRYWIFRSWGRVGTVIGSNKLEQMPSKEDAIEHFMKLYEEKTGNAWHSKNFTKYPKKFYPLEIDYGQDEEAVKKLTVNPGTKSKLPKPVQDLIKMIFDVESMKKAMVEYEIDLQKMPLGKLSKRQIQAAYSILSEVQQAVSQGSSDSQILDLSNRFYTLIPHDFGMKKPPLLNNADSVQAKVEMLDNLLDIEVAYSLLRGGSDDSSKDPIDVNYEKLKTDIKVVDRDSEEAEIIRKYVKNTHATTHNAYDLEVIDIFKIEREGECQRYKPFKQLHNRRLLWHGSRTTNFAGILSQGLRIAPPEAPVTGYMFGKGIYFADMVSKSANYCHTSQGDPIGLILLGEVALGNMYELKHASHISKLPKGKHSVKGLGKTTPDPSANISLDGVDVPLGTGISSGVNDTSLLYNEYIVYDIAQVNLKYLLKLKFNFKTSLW

SMILES	inhibition of the activity of PARP enzyme (PARP enzyme)	inhibition of tumor growth (transplanted tumor)	safety (toxicological data) [1]	safety (toxicological data) [2]	crystal form change after accelerated stability test [3]
O=C(c1cc(Cc2n[nH]c(=O)c3ccccc23)ccc1F)N1CCn2nc(C(F)(F)F)nc2C1 [formula I]	inhibit the activity of PARP enzyme significantly	inhibit tumor growth significantly	has a corresponding safety	has a corresponding safety	–
O=C(c1cc(Cc2n[nH]c(=O)c3ccccc23)ccc1F)N1CCn2nc(C(F)(F)F)nc2C1 [Example 1]	–	–	–	–	did not change
